Values of other authors in patent US20090186826A1, “Cosmetic or dermopharmaceutical compositions of ceramides and polypeptides” (SEDERMA, priority 2003, published 2009).
Where no end group is shown, it is not given here.

System: fibroblasts
Details: reported by Senior et al. J. Cell Biol. 99, 870-874, 1984

## VGVAPG [fragment of the protein called elastin]
  chemotactic activity: chemotactic activity
